The test system of the assay is albino, male, Sprague-Dawley subjects. Briefly: Diuretic bioactivity analysis: urine output in metabolic cages after oral gelatin capsule dosing. It is filed as in vivo, rats. To be noted: 10 mg/kg oral. On the procedure:
Subject rats were weighed at the start of each example. Each formulation was prepared and then loaded into size 9 gelatin capsules using a gelatin capsule filler (Torpac, Fairfield, N.J.). Each gelatin capsule was weighed on a microbalance (AD-4 Autobalance, Perkin Elmer, Waltham, Mass.) prior to and after drug loading to prepare oral doses of 2.5 mg, 5 mg, or 10 mg of drug per kg of body mass within 0.5 mg of dose mass.
Each subject was anesthetized in an induction chamber with 3.5% isoflurane (Novation, Irving, Tex.) for 5-10 minutes. Once anesthetized, the subject was removed from the induction chamber and dosed with a size 9 gelatin capsule containing one of the furosemide formulations using the gelatin capsule dosing syringe (Torpac, Fairfield, N.J.). As a negative control the same subjects were administered empty gelatin capsules without furosemide to quantify the basal urine mass output for comparison. Upon recovery from anesthesia, each subject was then transferred to a metabolic cage for urine collection over a 10 hour period.
Twelve albino, male, Sprague-Dawley subjects (450 g to 750 g) were used as subjects in the bioactivity analysis example. Subjects were housed in standard bedded cages in accordance with NIH and IACUC guidelines. Immediately after oral gavage with a furosemide formulation, subjects were housed individually in a metabolic cage rack (Unifab Cages, Kalamazoo, Mich.) as shown in FIG. 2. Subjects were given access to food and water ad libitum throughout the study. Metabolic cages were equipped with wire grating floors that allowed for free passage and collection of excreted material during the period of containing the subject. Feces were collected beneath the large opening wire grating floor by smaller opening wire mesh screen, and urine continued through the screen into a funnel for collection into pre-weighed glass scintillation vials (Cole-Parmer, Vernon Hills, Ill.). At two hour intervals after dosing, the glass scintillation vials were weighed (Mettler Toledo, Columbus, Ohio) to quantify urine output as a function of time and were then replaced. Increased urine output above baseline values was used as a non-invasive measure of diuretic activity of the various furosemide formulations examined. After each 10 hour study, subjects were housed in bedded cages for a recovery period of at least 48 hours between metabolic cage studies.
Each dose was administered to three subjects and the average urine mass produced in the two hour time periods was determined and was compared to the average output of the same subjects that received a sham dosage without any furosemide, referred to in the figures as the basal output.

Regarding `NS(=O)(=O)c1cc(C(=O)O)c(NCc2ccco2)cc1Cl` [stock furosemide, Furosemide], for the setting “N=3, not significantly different”, the “total urine output at hour 10 relative to the micronized dose” value was 1.02 fold. For the same molecule, under “N=3, p<0.01”, the “mean urine mass output two hours after dosing relative to basal urine output” value amounted to 12.2 fold; the “mean urine mass output two hours after dosing relative to equivalent dose of micronized furosemide” value is reported as 8.6 fold; the “urine output two hours after oral dosing compared to micronized furosemide and basal control” value is “statistically significant greater urine output”.

These data come from US8685947B2, “Compositions and methods for loop diuretics with consistent bioavailability” (Brown University, priority 2010, dated 2014).
